Results taken from the supplement of paper PMC10627819.

Experiments:
S. pneumoniae D39V [1] = experiment: fitness (endpoint OD595 vs no drug) (fraction); higher = more growth
Summary of the method: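 Plates with 384 wells were inoculated at OD595 0.01 using 30 µl of TSB, LB Lennox or CY, or 55 µl for S. pneumoniae. Incubation was at 37 °C, with OD595 measured every 30 min for 14 h. Fitness is the stationary-phase transition optical density over the robust mean of no-drug control wells, after first-reading background subtraction; it is capped at 1.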

B. subtilis 168 = experiment: Bliss interaction score (quartile over a dose matrix) (fitness difference); higher = more antagonism (negative = synergy)
Summary of the method: (§1)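 Fitness was defined as normalised growth: OD595 at the start of stationary phase divided by the plate's robust no-drug mean and capped at 1. Single-drug fitness was inferred from combination measurements. The Bliss score is observed fitness minus the product of the single-drug values, summarised by quartiles across technical, biological and donor/recipient replicates.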

S. pneumoniae D39V [2] = experiment: as above
Summary of the method: as §1

S. aureus DSM 20231 = experiment: as above
Summary of the method: as §1

S. aureus Newman = experiment: as above
Summary of the method: as §1
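Wherever Bliss interaction score (quartile over a dose matrix) is given: first quartile when negative (synergy) and third quartile when positive (antagonism).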

CC[C@H]1OC(=O)[C@H](C)[C@@H](O[C@H]2C[C@@](C)(OC)[C@@H](O)[C@H](C)O2)[C@H](C)[C@@H](O[C@@H]2O[C@H](C)C[C@H](N(C)C)[C@H]2O)[C@](C)(OC)C[C@@H](C)C(=O)[C@H](C)[C@@H](O)[C@]1(C)O [Clarithromycin] + C[C@@H](O)[C@H]1C(=O)N2C(C(=O)O)=C(SCCNC=N)C[C@H]12 [Imipenem]
fitness, S. pneumoniae D39V [1], one replicate
Details	first compound 0.007812 µg/mL	first compound 0.01562 µg/mL	first compound 0.03125 µg/mL
partner 0.005 µg/mL	0.831	0.812	0.589
partner 0.01 µg/mL	0.855	0.837	0.612
partner 0.02 µg/mL	0.858	0.844	0.629

fitness, S. pneumoniae D39V [1]
Details	first compound 0.0625 µg/mL	first compound 0.07 µg/mL	first compound 0.125 µg/mL	first compound 0.14 µg/mL	first compound 0.25 µg/mL	first compound 0.28 µg/mL
partner 0.005 µg/mL	–	0.13	–	0.0799	–	0.0611
partner 0.0065 µg/mL	0.541	–	0.154	–	0.0361	–
partner 0.01 µg/mL	–	0.146	–	0.0799	–	0.0532
partner 0.013 µg/mL	0.661	–	0.277	–	0.0557	–
partner 0.02 µg/mL	–	0.17	–	0.109	–	0.0635
partner 0.026 µg/mL	0.621	–	0.201	–	0.0493	–

Details	Bliss interaction score
B. subtilis 168	0.0428
S. aureus DSM 20231	0.0295
S. aureus Newman	0.0267
S. pneumoniae D39V [2]	-0.085

CC[C@H]1OC(=O)[C@H](C)[C@@H](O[C@H]2C[C@@](C)(OC)[C@@H](O)[C@H](C)O2)[C@H](C)[C@@H](O[C@@H]2O[C@H](C)C[C@H](N(C)C)[C@H]2O)[C@](C)(OC)C[C@@H](C)C(=O)[C@H](C)[C@@H](O)[C@]1(C)O [Clarithromycin] + C[C@H]1COc2c(N3CCN(C)CC3)c(F)cc3c(=O)c(C(=O)O)cn1c23 [Levofloxacin]
fitness, S. pneumoniae D39V [1], one replicate
Details	first compound 0.007812 µg/mL	first compound 0.01562 µg/mL	first compound 0.03125 µg/mL
partner 0.2 µg/mL	0.782	0.811	0.599
partner 0.4 µg/mL	0.646	0.726	0.533
partner 0.8 µg/mL	0.257	0.316	0.244

S. pneumoniae D39V [1]
Details	fitness
first compound 0.0625 µg/mL, partner 0.1725 µg/mL	0.701
first compound 0.0625 µg/mL, partner 0.345 µg/mL	0.691
first compound 0.0625 µg/mL, partner 0.69 µg/mL	0.371
first compound 0.07 µg/mL, partner 0.2 µg/mL	0.139
first compound 0.07 µg/mL, partner 0.4 µg/mL	0.134
first compound 0.07 µg/mL, partner 0.8 µg/mL	0.0857
first compound 0.125 µg/mL, partner 0.1725 µg/mL	0.486
first compound 0.125 µg/mL, partner 0.345 µg/mL	0.463
first compound 0.125 µg/mL, partner 0.69 µg/mL	0.349
first compound 0.14 µg/mL, partner 0.2 µg/mL	0.0726
first compound 0.14 µg/mL, partner 0.4 µg/mL	0.0532
first compound 0.14 µg/mL, partner 0.8 µg/mL	0.063
first compound 0.25 µg/mL, partner 0.69 µg/mL	0.242
first compound 0.28 µg/mL, partner 0.2 µg/mL	0.0574
first compound 0.28 µg/mL, partner 0.4 µg/mL	0.0463
first compound 0.28 µg/mL, partner 0.8 µg/mL	0.0433

Details	Bliss interaction score
B. subtilis 168	0.0707
S. aureus DSM 20231	0.0901
S. aureus Newman	0.0872
S. pneumoniae D39V [2]	-0.0537

CC[C@H]1OC(=O)[C@H](C)[C@@H](O[C@H]2C[C@@](C)(OC)[C@@H](O)[C@H](C)O2)[C@H](C)[C@@H](O[C@@H]2O[C@H](C)C[C@H](N(C)C)[C@H]2O)[C@](C)(OC)C[C@@H](C)C(=O)[C@H](C)[C@@H](O)[C@]1(C)O [Clarithromycin] + C[C@H]1c2cccc(O)c2C(=O)C2=C(O)[C@]3(O)C(=O)C(C(N)=O)=C(O)[C@@H](N(C)C)[C@@H]3[C@@H](O)[C@@H]21 [Doxycycline]
fitness, S. pneumoniae D39V [1], one replicate
Details	first compound 0.007812 µg/mL	first compound 0.01562 µg/mL	first compound 0.03125 µg/mL	first compound 0.0625 µg/mL	first compound 0.125 µg/mL	first compound 0.25 µg/mL
partner 0.003875 µg/mL	–	–	–	0.674	0.375	0.0974
partner 0.00775 µg/mL	–	–	–	0.736	0.317	0.115
partner 0.0155 µg/mL	0.731	0.708	0.61	–	–	–
partner 0.031 µg/mL	0.681	0.669	0.609	0.464	0.143	0.101
partner 0.062 µg/mL	0.587	0.482	0.266	0.267	0.129	0.0712

fitness, S. pneumoniae D39V [1]
Details	first compound 0.0625 µg/mL	first compound 0.07 µg/mL	first compound 0.125 µg/mL	first compound 0.14 µg/mL	first compound 0.25 µg/mL	first compound 0.28 µg/mL
partner 0.0155 µg/mL	0.574	0.0409	0.223	0.0521	0.143	0.0358
partner 0.031 µg/mL	–	0.0283	–	0.0438	–	0.0338
partner 0.062 µg/mL	–	0.0302	–	0.0541	–	0.0267

Details	Bliss interaction score
B. subtilis 168	-0.324
S. aureus DSM 20231	-0.161
S. aureus Newman	-0.116
S. pneumoniae D39V [2]	-0.107

CC[C@H]1OC(=O)[C@H](C)[C@@H](O[C@H]2C[C@@](C)(OC)[C@@H](O)[C@H](C)O2)[C@H](C)[C@@H](O[C@@H]2O[C@H](C)C[C@H](N(C)C)[C@H]2O)[C@](C)(OC)C[C@@H](C)C(=O)[C@H](C)[C@@H](O)[C@]1(C)O [Clarithromycin] + C[n+]1ccc(-c2cc[n+](C)cc2)cc1 [Paraquat]
fitness, S. pneumoniae D39V [1], one replicate
Details	first compound 0.007812 µg/mL	first compound 0.01562 µg/mL	first compound 0.03125 µg/mL	first compound 0.0625 µg/mL	first compound 0.125 µg/mL	first compound 0.25 µg/mL
partner 1.5 µg/mL	0.899	0.836	0.603	0.771	0.597	0.274
partner 3 µg/mL	0.918	0.871	0.62	0.788	0.684	0.324
partner 6 µg/mL	0.909	0.816	0.657	0.837	0.708	0.345

fitness, S. pneumoniae D39V [1]
Details	first compound 0.07 µg/mL	first compound 0.14 µg/mL	first compound 0.28 µg/mL
partner 1.5 µg/mL	0.171	0.129	0.0703
partner 3 µg/mL	0.171	0.103	0.0937
partner 6 µg/mL	0.164	0.126	0.0698

Details	Bliss interaction score
B. subtilis 168	-0.0322
S. aureus DSM 20231	-0.0525
S. aureus Newman	-0.0377
S. pneumoniae D39V [2]	0.0803
